Results published in patent US10434083B2, “Transmammary delivery of cyclooxygenase-2 inhibitors for analgesia in neonates” (Iowa State University Research Foundation, Inc., priority 2018, dated 2019).
Values joined by “and” are separate entries in the source; they are usually repeats but may differ in a detail not shown here. Identical values can stand only once.

Legend:
[1] = Total firocoxib exposure in piglets as a percentage of sow AUC; assay type: in vivo, swine
Protocol: The relative transfer of firocoxib from medicated sows to piglets was evaluated by comparing the piglet plasma drug concentration as a percentage of the sow plasma drug concentration at each time point. Total piglet exposure to firocoxib via milk consumed from treated dams was evaluated by comparing the firocoxib AUC for the piglets with the drug AUC calculated for the corresponding dams from each treatment. Exposure percentages were determined using the equation:
[formula] Statistical Analysis

in vivo = details: female, Yorkshire×Landrace, swine
Protocol: Tissue concentrations of firocoxib and its descyclopropylmethyl metabolite were determined using high-pressure liquid chromatography (Agilent 1100 Pump, Column Compartment and Autosampler, Agilent Technologies, Santa Clara, Calif., USA) with mass spectrometry detection (LTQ Ion Trap, Thermo Scientific, San Jose, Calif., USA). The tissue samples analysed were muscle, injection site, kidney, liver, and fat. Eight calibration spikes were prepared in blank porcine tissue in the concentration range of 0.05-10 μg/g. The tissue samples were thawed and homogenized in a Waring blender before extraction and analysis. […]
Plasma and tissue firocoxib concentrations were determined using high-pressure liquid chromatography (Agilent 1100 Pump, Column Compartment and Autosampler, Agilent Technologies, Santa Clara, Calif.) with mass spectrometry detection (LTQ Ion Trap, Thermo Scientific, San Jose, Calif.). […] Full scan MS was used for analyte detection and three fragment ions were used for quantitation of each analyte species. […] Firocoxib and d6-firocoxib were analyzed in positive ion mode. […]
For plasma samples, the calibration curves had correlation coefficients (R^2) exceeding 0.995 across the concentration range. […] The limit of quantitation of the analysis was 1.0 ng/mL, with a limit of detection of 0.2 ng/mL. […]

[2] = Preweaning piglet deaths per sow treatment group; assay type: in vivo, swine
Protocol: Protocols involved intramuscular injection of Firocoxib to lactating sows at either 0.5, 1.0, 1.5 or 2 mg/kg, and analysis in sows and select piglets at 21 days post treatment. Pregnant Yorkshire×Landrace sows (mean±SEM bodyweight, 250.3±7.61 kg) that were approximately 1 week before farrowing were sourced from a commercial swine farm. Each sow was examined by a veterinarian to confirm that she was healthy and pregnant. A unique numerical ear tag (Allflex Global Ear Tags, Allflex USA, Inc., DFW Airport, TX) was placed in the right ear of each sow for identification. The sows were housed in a commercial swine operation at MVS (West Point, Nebr.) in accordance with the recommendations in the Guide for the Care and Use of Agricultural Animals in Agricultural Use and Research and Teaching (Guide for the Care and Use of Agricultural Animals in Agricultural Research and Teaching, 2010). Sows were placed in Quad- or Euro-style farrowing stalls (Thorp Equipment, Thorp, Wis.), depending on availability. Regardless of stall type, each sow was housed in a farrowing crate measuring 0.6 m×2.1 m. Quad and Euro crates had piglet creep areas of 7.0 m^2 and 6.4 m^2, respectively. After farrowing, a heat lamp was provided on one side of the creep area for the piglets in each crate. All sows were fed a diet that met or exceeded National Research Council (NRC, 2012) nutrient requirements and water was provided ad libitum. Each litter provided at least six male and three female piglets for sampling with the exception of one sow that had 5 males and 4 females in the litter, and one sow that had 3 males and 6 females in the litter. Piglets were clinically examined and weighed on Study Day 0 prior to dosing. Cross fostering of the litters was permitted. Bodyweights were used to randomly assign sows to 1 of 4 treatment groups (n=4 sows/group) as detailed in Table 3.
A sample size of 4 sows was selected to describe the pharmacokinetics of firocoxib. For the comparison of plasma cortisol concentrations and average daily gain in bodyweight (ADG), a sample size of 36 piglets/treatment group was calculated to provide Statistical Power of 0.8 assuming an alpha of 0.05, sigma of 0.54 and delta of 0.20. At the time of study commencement (T0), sows received a single dose of firocoxib (Equioxx Injection, Merial, Duluth, Ga.) (Lot number 4VP07, Expiration Date November 2017) administered at either 0.5 mg/kg, 1.0 mg/kg, 1.5 mg/kg, or 2.0 mg/kg by IM injection into the right lateral neck using an 18-gauge, 1.5-inch needle attached to a 20-mL syringe (Table 3). In cases where the calculated dose volume exceeded 20-mL, the remaining volume was administered via IM injection in the left lateral neck muscle.

CC1(C)OC(=O)C(OCC2CC2)=C1c1ccc(S(C)(=O)=O)cc1 [firocoxib]
% Exposure (AUClast, piglet vs sow) ([1]; sow dose 0.5 mg/kg): 41.42% | % Exposure (AUC∞, piglet vs sow) ([1]; sow dose 0.5 mg/kg): 43.51% | % Exposure (AUClast, piglet vs sow) ([1]; sow dose 1.0 mg/kg): 46.29% | % Exposure (AUC∞, piglet vs sow) ([1]; sow dose 1.0 mg/kg): 56.50% | % Exposure (AUClast, piglet vs sow) ([1]; sow dose 1.5 mg/kg): 46.83% | % Exposure (AUC∞, piglet vs sow) ([1]; sow dose 1.5 mg/kg): 53.31% | % Exposure (AUC∞, piglet vs sow) ([1]; sow dose 2.0 mg/kg): 26.75% | % Exposure (AUClast, piglet vs sow) ([1]; sow dose 2.0 mg/kg, 2 mg/kg): 25.32% and 25% | concentration at 21 d (in vivo): ≤ 50 ng/g | Preweaning piglet deaths, Total ([2]; sow treatment group #1, 0.5 mg/kg): 2 | Preweaning piglet deaths, Total ([2]; sow treatment group #2, 1.0 mg/kg): 3 | Preweaning piglet deaths, Total ([2]; sow treatment group #3, 1.5 mg/kg): 3 | Preweaning piglet deaths, Total ([2]; sow treatment group #4, 2.0 mg/kg): 0
